# Test results as given in publication PMC10987949, “Inhibition of HIV-1 release by ADAM metalloproteinase inhibitors” (Frontiers in Microbiology, 2024).
# Entries after “also recorded” stand apart in the source; their conditions may differ. Where a SMILES comes first, the peptide text is derived from it. [ ]: non-standard residue; d: D form. The star is where a group is joined. Sta = CC(C)C[C@H](N)[C@@H](O)CC(=O)O; Isovaleryl = CC(C)CC(=O)*; 4Abz = Nc1ccc(C(=O)O)cc1; Cbz = O=C(OCc1ccccc1)*; CH2Cl = ClC*; NHOH = ON*
# System: CD62L shedding
# Assay: Soluble CD62L ELISA, anti-CD3/PHA stimulated PBMC or CD4 T cells
# Format: cell-based, human
# Conditions: 10 μM compound; stimulated cells; ELISA
# Description: PBMC from de-identified healthy donors were obtained with informed consent from the Department of Transfusion Medicine, National Institutes of Health under Biological reagent Registry RD-14-IX-12 approved by NIH biological safety board. […] IL-2 was added at a final concentration of 20 U/mL. CD3 antibody okt3 was used at ~0.2 μg/mL final concentration. […] Supernatants were collected and assessed using either the CD62L or TNF-α Duo Set ELISA kit according to manufacturer’s instructions (R&D Systems, Inc.). The viability of cells treated with compounds was assessed by acridine orange / propidiom iodide (AO/PI Logosbio catalog F23001) staining using Luna-FL cell counter following the manufacture’s instruction.^2
row,Molecule,Shedding inhibition Stimulated
1,O=S(=O)(F)Cc1ccccc1 [PMSF],− (0% inhibition)
2,"COc1ccc(S(=O)(=O)N(CC(=O)NO)CC(C)C)cc1 [NNGH, N-Isobutyl-N-(4-methoxyphenylsulfonyl)glycyl hydroxamic acid]",− (0% inhibition)
3,Cystatin,− (0% inhibition)
4,O=S(=O)(CC1CS1)c1ccc(Oc2ccccc2)cc1 (stereo not shown) [SB-3CT],− (0% inhibition)
5,Aprotinin,− (0% inhibition)
6,CC(C)C[C@H](CC(=O)NO)C(=O)N[C@@H](Cc1ccc2ccccc2c1)C(=O)N[C@@H](C)C(N)=O [TAPI-0],++ (>50%)
7,CC(C)C[C@H](NC(=O)[C@H]1O[C@@H]1C(=O)O)C(=O)NCCCCN=C(N)N [Compound E64],− (0% inhibition)
8,"Cc1cc(CCC[C@H](CC(=O)NO)C(=O)N[C@H](C(=O)N[C@H](C)c2ccccc2)C(C)(C)C)ccc1-c1ccccc1 [UK-356618, (2R)-N1-[(1S)-2,2-Dimethyl-1-({[(1R)-1-phenylethyl]amino}carbonyl)propyl]-2-{3-[(3-methyl-4-phenyl)-phenyl]propyl}-(N4-hydroxy)butanediamide]",− (0% inhibition)
9,NCCc1ccc(S(=O)(=O)F)cc1 [AEBSF],− (0% inhibition)
10,"O=c1oc(Cl)c(Cl)c2ccccc12 [3,4-DCIC, 3,4-Dichloroisocouman]",− (0% inhibition)
11,CC(C)C[C@H](CC(=O)NO)C(=O)N[C@H](C(=O)N[C@@H](C)C(=O)NCCN)C(C)(C)C [TAPI-2],++ (>50%)
12,CC(C)C[C@H](CC(=O)NO)C(=O)N[C@@H](Cc1ccc2ccccc2c1)C(=O)N[C@@H](C)C(=O)NCCN [TAPI-1],++ (>50%)
13,CC[C@H](C)[C@H](NC(C)=O)C(=O)N[C@@H](CCC(=O)O)C(=O)N[C@H](C(=O)N[C@H](C=O)CC(=O)O)[C@@H](C)O [GrzB II] (Ac-IETD-aldehyde),− (0% inhibition)
14,CC[C@H](C)[C@H](NC(C)=O)C(=O)N[C@@H](CCC(=O)O)C(=O)N1CCC[C@H]1C(=O)N[C@H](C=O)CC(=O)O [GrzB IV] (Ac-IEPD-aldehyde),− (0% inhibition)
15,NC(=O)CI [Iodoacetamide],− (0% inhibition)
16,"CC(C)C[C@@H](NC(=O)[C@@H]1CCCN1C(=O)CNC(=O)c1ccc(N)cc1)C(=O)N[C@@H](C)C(=O)NO [Compound 4-m-GPDLA, 4-aminobenzoyl-Gly-Pro-D-Leu-ala hydroxamic acid] (H-[4Abz]GP[dL]A-{NHOH})",− (0% inhibition)
17,"CC(C)(C)OC(=O)N[C@H]1[C@@H]2CNC[C@@H]21 [CP-101537, N-(1a,5a,6a)-3-Azabicyclo[3.1.0]hex-6-yl-carbamic acid 1,1-dimethylethyl ester]",− (0% inhibition)
18,C[C@H](NC(=O)OCc1ccccc1)C(=O)N[C@@H](C)C(=O)N[C@@H](CC(=O)O)C(=O)CCl [GrzB I] (Cbz-Ala-Ala-Asp-CH2Cl),− (0% inhibition)

# Same assay, conditions: 100 μM compound; stimulated cells; ELISA
row,Molecule,Shedding inhibition Stimulated
1,CCOCOC[C@H](C[C@H](C)C(=O)NO)NC(=O)c1ccc(Oc2ccccc2)cc1 [ONO-4817],+/− (<20)

# Same assay, conditions: Homo sapiens; 10 μM compound; stimulated cells; ELISA
row,Molecule,inhibition at 10 µM [%]
1,"OB(O)c1ccc2[nH]ccc2c1 [Compound 5-Indolylb, 5-indolylboronic acid]",0
2,"CC1(c2ccccc2)NC(=O)NC1=O (stereo not shown) [Compound 5-m-5-p, 5-methyl-5-phenylhydantoin]",0
3,"CC(C)ON([C@@H](C(=O)NO)C(C)C)S(=O)(=O)c1ccc(-c2ccccc2)cc1 [ARP 101, (2R)-2-[([1,1′-Biphenyl]-4-ylsulfonyl)(1-methylethoxy)amino]-N-hydroxy-3-methyl-butanamide]",< 20
4,CC(=O)N[C@@H](CC(C)C)C(=O)N[C@@H](CC(C)C)C(=O)N[C@H](C=O)CCCNC(=N)N [Leupeptin],0
5,CC(C)C[C@H](NC(=O)[C@@H](O)[C@H](N)Cc1ccccc1)C(=O)O [Bestatin],0
6,"CC(C)[C@H](NS(=O)(=O)c1ccc(-c2ccc(Br)cc2)cc1)C(=O)O [PD166793, (S)-2-(4′-Bromo-biphenyl-4-sulfonylamino)-3-methyl-butyric acid hydrate]",0
7,"CCCC(C)NC(=O)c1ccc(Cl)c(Cl)c1 (stereo not shown) [NSC405020, 3,4-Dichloro-N-(1-methylbutyl)-benzamide]",0
8,C[C@H]1c2cccc(O)c2C(=O)C2=C(O)[C@]3(O)C(=O)C(C(N)=O)=C(O)[C@@H](N(C)C)[C@@H]3[C@@H](O)[C@@H]21 [Doxycycline],0
9,CC(C)CC(=O)N[C@H](C(=O)N[C@H](C(=O)N[C@@H](CC(C)C)[C@@H](O)CC(=O)N[C@@H](C)C(=O)N[C@@H](CC(C)C)[C@@H](O)CC(=O)O)C(C)C)C(C)C [Pepstatin A] (Isovaleryl-VV[Sta]A[Sta]-OH),0
10,"CC(C)(NS(=O)(=O)c1ccc(Oc2ccc(F)cc2)cc1)C(=O)NO [CP-471474, 2-[[[4-(4-Fluorophenoxy)phenyl]sulfonyl]amino]-N-hydrox y-2-methylpropanamide]",0
11,N=C(N)c1ccc2cc(OC(=O)c3ccc(N=C(N)N)cc3)ccc2c1 [Nafamostat],0

# Same assay, conditions: stimulated PBMC or CD4 T cells, ELISA
row,Molecule,effect on CD62L shedding / soluble CD62L
1,"O=c1oc(Cl)c(Cl)c2ccccc12 [3,4-DCIC, 3,4-Dichloroisocouman]",significantly increased soluble CD62L concentration; also recorded: enhanced CD62L shedding
2,TAPI,suppressed CD62L shedding

# Same assay, conditions: titration of HAART compounds, concentration range tested
row,Molecule,effect on CD62L shedding from stimulated PBMC
1,Cc1nnc(C(=O)NC(C)(C)c2nc(C(=O)NCc3ccc(F)cc3)c(O)c(=O)n2C)o1 [raltegravir],did not inhibit CD62L shedding
2,Cc1ccnc2c1NC(=O)c1cccnc1N2C1CC1 [nevirapine],did not inhibit CD62L shedding

# System: CD62L shedding
# Assay: Soluble CD62L ELISA, unstimulated PBMC
# Format: cell-based, human
# Conditions: 10 μM compound; non-stimulated cells; ELISA
# Description: PBMC from de-identified healthy donors were obtained with informed consent from the Department of Transfusion Medicine, National Institutes of Health under Biological reagent Registry RD-14-IX-12 approved by NIH biological safety board. CD8-depleted PBMCs, either stimulated or non-stimulated with 10 μg/mL phytohaemagglutinin (PHA) or anti-CD3 antibody (with or without conjugated beads), were plated at 2×10^6 cells/ml in 48 well plates in RPMI 1640 + 10%FBS (R10) to a final volume of 1 mL in each well. IL-2 was added at a final concentration of 20 U/mL. CD3 antibody okt3 was used at ~0.2 μg/mL final concentration. […] Supernatants were collected and assessed using either the CD62L or TNF-α Duo Set ELISA kit according to manufacturer's instructions (R&D Systems, Inc.). The viability of cells treated with compounds was assessed by acridine orange / propidiom iodide (AO/PI Logosbio catalog F23001) staining using Luna-FL cell counter following the manufacture's instruction.^2 […] Supplemental Figure 1. CD62L shedding from unstimulated PBMC. A) Soluble CD62L in the supernatant of unstimulated PBMC was measured By ELISA (R&D systems, Inc) after 24 hour treatment in the presence of 10 μM of […]), aminopeptidase (AP) protease inhibitors, respectively, or their untreated controls. Statistics were calculated using unpaired parametric student t-test between individual treatment and DMSO control. […] B) Viability of PBMC treated with 10-500 μM of MMP inhibitors for 24hours. […] Untreated DMSO AEBSF 3,4-Dichloroisocouman Granzyme B Inhibitor II Granzyme B Inhibitor IV Aprotinin […] 3 4 CD62L shedding from unstimulated PBMC Soluble CD62L (ng/ml) Inhibitor Class […] GI254023X 10 GI254023X 100 […] GI254023X 1000 GW280264X 10 GW280264X 100 […] GW280264X 1000 Marimastat 10 Marimastat 100 Marimastat 250 […]
row,Molecule,Shedding inhibition Non-stim.
1,"Cc1cc(CCC[C@H](CC(=O)NO)C(=O)N[C@H](C(=O)N[C@H](C)c2ccccc2)C(C)(C)C)ccc1-c1ccccc1 [UK-356618, (2R)-N1-[(1S)-2,2-Dimethyl-1-({[(1R)-1-phenylethyl]amino}carbonyl)propyl]-2-{3-[(3-methyl-4-phenyl)-phenyl]propyl}-(N4-hydroxy)butanediamide]",− (0% inhibition)

# Same assay, conditions: 100 μM compound; non-stimulated cells; ELISA
row,Molecule,Shedding inhibition Non-stim.
1,CCOCOC[C@H](C[C@H](C)C(=O)NO)NC(=O)c1ccc(Oc2ccccc2)cc1 [ONO-4817],+ (20–50)

# System: HIV-1BAL
# Assay: HIV-1BAL infection of CD8-depleted PBMC, FACS (intracellular p24, CD4, CD62L)
# Format: cell-based
# Conditions: HIV-1BAL infected cells
# Description: The use of healthy human peripheral blood mononuclear cells (PBMC) is approved by the Department of Transfusion Medicine at the Clinical Center of National Institutes of Health. The use of PBMC from HIV-1 infected individuals for the study was approved under protocol #02-I-0202 by the Institutional Review Board (IRB) of National Institutes of Health with written informed consent from all donors. Peripheral blood mononuclear cells (PBMCs) from anonymous healthy donors were isolated by Ficoll-Paque gradient, and cultured in RPMI 1640 supplemented with 10% FBS, 1%Penicillin/streptomycin, 1% HEPES buffer and 20 U/mL IL-2 (culture media); and stimulated with 0.2 μg/mL anti-CD3 antibody (okt3) for 2 days. CD8^+ T cells were depleted prior to infection using the Stemcell CD8 positive selection kit according to manufacturer’s instructions. CD8-depleted PBMCs were plated at 2×10^6 cells/ml in 48-well plates in 1 mL culture media with various inhibitors for 60 min prior to the addition of ~80 TCID50 HIV-1BAL or HIV-1LAI. Inhibitors were replenished during media change every 3 days. The infections were proceeded with or without inhibitors for 6 days or otherwise specified number of days and then analyzed by FACS staining using fluorescent labeled CD4-BV510, CD62L-APC and CD3-PEC7 antibodies (BD Biosciences). Cells were then washed and permeabilized with CytoFix/CytoPerm (BD Biosciences) solution before intracellular staining for HIV p24 antigen using FITC conjugated anti-p24 antibody clone KC57 (Beckman Coulter, catalog 6604665). All assays were performed with cell viabilities >80%. Replication competent HIV-1 viruses were obtained from the NIH AIDS Reagent Program^4, and expanded by infecting activated CD8-depleted PBMCs, and TCID50 was determined by p24 ELISA.
row,Molecule,accumulation of infected CD4−/CD62L− T cells (loss of CD62L)
1,CC(C)C[C@H](CC(=O)NO)C(=O)N[C@@H](Cc1ccc2ccccc2c1)C(=O)N[C@@H](C)C(N)=O [TAPI-0],did not inhibit the accumulation

# Same assay, conditions: day 6; 0.5μM compounds
row,Molecule,p24 staining in HIV-1BAL infection of PBMC
1,C[C@@H]1CCO[C@H]2Cn3cc(C(=O)NCc4ccc(F)cc4F)c(=O)c(O)c3C(=O)N12 [Doultegravir],no significant staining

# Same assay, conditions: day 7 post infection; compounds at 100 μM, GI254023X at 250 μM
row,Molecule,effect on HIV-1BAL infection (intracellular p24)
1,CC(C)C[C@H](CC(=O)NO)C(=O)N[C@@H](Cc1ccc2ccccc2c1)C(=O)N[C@@H](C)C(N)=O [TAPI-0],fail to significantly suppress the viral infections
2,"O=c1oc(Cl)c(Cl)c2ccccc12 [3,4-DCIC, 3,4-Dichloroisocouman]",did not enhance HIV-1 infection
